Measurements from PubChem BioAssay AID248 (DTP/NCI, 2004).
Where “and” joins values, the source holds several entries; their conditions need not be identical. Equal values may be shown once. Toxic doses and inconclusive results are not listed. No stated cut-off is given here; in the data, active means T/C of 150% or more; inactive means T/C below 125%.

Test system: L1210 leukemia ip in BDF1 mice, survival T/C
Assay: NCI In Vivo Anticancer Drug Screen. Data for tumor model L1210 Leukemia (intraperitoneal) in B6D2F1 (BDF1) mice
Settings: endpoint: mean survival time, higher = longer survival
How it was run: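 Transplantable tumor model; survival measured in treated vs vehicle control mice. Value = treated/control.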

[1] = dose: 50.0 mg/kg/injection, schedule: Q01DX009 (ip), vehicle: Klucel (hydroxypropylcellulose) (HPC)
[2] = dose: 100.0 mg/kg/injection, schedule: Q01DX009 (ip), vehicle: Klucel (hydroxypropylcellulose) (HPC)
[3] = dose: 200.0 mg/kg/injection, schedule: Q01DX009 (ip), vehicle: Klucel (hydroxypropylcellulose) (HPC)

Measured: T/C

CCOC(=O)c1ccc(NC(=O)Nc2cc(Cl)ccc2OC)cc1
inactive: dose: 100.0 mg/kg/injection, schedule: Q01DX009 (ip), vehicle: saline 106 % of control | dose: 100.0 mg/kg/injection, schedule: Q04DX003 (ip), vehicle: saline 109 % of control | dose: 200.0 mg/kg/injection, schedule: Q01DX009 (ip), vehicle: saline 92 % of control | dose: 200.0 mg/kg/injection, schedule: Q04DX003 (ip), vehicle: saline 97 % of control | dose: 400.0 mg/kg/injection, schedule: Q01DX009 (ip), vehicle: saline 92 % of control | dose: 400.0 mg/kg/injection, schedule: Q04DX003 (ip), vehicle: saline 92 % of control

O=Nc1ccc(O)c2ccccc12
inactive: [1] 100 % of control | [2] 100 % of control | [3] 95 % of control

O=[N+]([O-])c1ccc(C(Cl)S(=O)(=O)c2ccccc2)cc1 (centres undefined)
inactive: dose: 50.0 mg/kg/injection, schedule: Q01DX001 (ip), vehicle: saline 100 % of control | [1] 103 % of control | dose: 50.0 mg/kg/injection, schedule: Q04DX003 (ip), vehicle: Klucel (hydroxypropylcellulose) (HPC) 99 % of control | dose: 100.0 mg/kg/injection, schedule: Q01DX001 (ip), vehicle: saline 108 % of control | [2] 92 % of control | dose: 100.0 mg/kg/injection, schedule: Q04DX002 (ip), vehicle: Klucel (hydroxypropylcellulose) (HPC) 93 % of control and 100 % of control | dose: 100.0 mg/kg/injection, schedule: Q04DX003 (ip), vehicle: Klucel (hydroxypropylcellulose) (HPC) 111 % of control | dose: 119.0 mg/kg/injection, schedule: Q01DX001 (ip), vehicle: Klucel (hydroxypropylcellulose) (HPC) 105 % of control | dose: 178.0 mg/kg/injection, schedule: Q01DX001 (ip), vehicle: Klucel (hydroxypropylcellulose) (HPC) 100 % of control | dose: 200.0 mg/kg/injection, schedule: Q01DX001 (ip), vehicle: saline 97 % of control | [3] 97 % of control | dose: 200.0 mg/kg/injection, schedule: Q04DX002 (ip), vehicle: Klucel (hydroxypropylcellulose) (HPC) 100 % of control | dose: 200.0 mg/kg/injection, schedule: Q04DX003 (ip), vehicle: Klucel (hydroxypropylcellulose) (HPC) 107 % of control | dose: 266.0 mg/kg/injection, schedule: Q01DX001 (ip), vehicle: Klucel (hydroxypropylcellulose) (HPC) 100 % of control | dose: 400.0 mg/kg/injection, schedule: Q01DX001 (ip), vehicle: Klucel (hydroxypropylcellulose) (HPC) 97 % of control | dose: 400.0 mg/kg/injection, schedule: Q01DX001 (ip), vehicle: saline 95 % of control | dose: 400.0 mg/kg/injection, schedule: Q01DX009 (ip), vehicle: Klucel (hydroxypropylcellulose) (HPC) 92 % of control | dose: 400.0 mg/kg/injection, schedule: Q04DX003 (ip), vehicle: Klucel (hydroxypropylcellulose) (HPC) 101 % of control | dose: 600.0 mg/kg/injection, schedule: Q01DX001 (ip), vehicle: Klucel (hydroxypropylcellulose) (HPC) 94 % of control | dose: 600.0 mg/kg/injection, schedule: Q04DX002 (ip), vehicle: Klucel (hydroxypropylcellulose) (HPC) 100 % of control
